Laboratory results: publication PMC7519686, “Engineering and application of a biosensor with focused ligand specificity” (Nature Communications, 2020)
pKd: −log10 of the molar value.

Tests used:
Type in all cases: binding
LysG [1] = target: T1, LysG (Corynebacterium glutamicum, UniProt P94632); assay: X-ray co-crystal structure ([…] Å) and ITC; set-up: full-length LysG
T1 sequence (P94632 1-290): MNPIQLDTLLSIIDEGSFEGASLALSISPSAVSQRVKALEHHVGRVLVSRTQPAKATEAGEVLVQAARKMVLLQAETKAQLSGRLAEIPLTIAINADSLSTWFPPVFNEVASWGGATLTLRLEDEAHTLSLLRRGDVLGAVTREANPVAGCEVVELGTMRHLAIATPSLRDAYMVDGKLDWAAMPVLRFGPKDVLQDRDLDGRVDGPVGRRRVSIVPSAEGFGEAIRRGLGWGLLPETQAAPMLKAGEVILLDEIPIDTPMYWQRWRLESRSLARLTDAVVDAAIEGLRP

LysG-A219L [2] = target: T2, LysG-A219L (Corynebacterium glutamicum, UniProt P94632, A219L); assay: ITC with purified protein (fixed stoichiometry of two ligands per tetramer)
LysG-A219L [3] = target: T2, LysG-A219L; assay: ITC with purified protein
LysG [4] = target: T1, LysG; assay: ITC with purified protein
LysG [5] = target: T1, LysG; assay: ITC with purified protein (fixed stoichiometry of two ligands per tetramer)

Structure (SMILES): N=C(N)NCCC[C@H](N)C(=O)O [L-arginine]
- pKd (LysG [1]): 2.94
- pKd (LysG-A219L [2]): 2.02

Structure (SMILES): N[C@@H](Cc1c[nH]cn1)C(=O)O [L-histidine]
- pKd (LysG-A219L [3]): 4.68
- Kd (LysG [4]): 16 µM

Structure (SMILES): NCCCC[C@H](N)C(=O)O [L-lysine]
- Kd (LysG [5]): 3290 µM
